# Laboratory results reported in patent US20150181885A1, “METHOD FOR CONTROLLING FUNGAL DISEASES IN MUSHROOM PRODUCTION” (priority 2012, published 2015).
# Columns and labels:
# [1] = tested on: Verticillium fungicola; test: In vitro antifungal activity assay in 96-well microtiter plates against Verticillium fungicola; type: cell-based; details: 3 days incubation at 25° C.
# Method: The following compositions are tested: […] Subsequently, 100 μl of a Verticillium fungicola suspension prepared in PCB medium is used to inoculate each well with 5.0×10^3 spores/ml. […] After incubation of the microtiter plates for 3 days at 25° C., the in vitro antifungal activity (%) of the individual active ingredients was assessed by calculating the reduction in mould growth observed in the presence of the active ingredient in comparison to the mould growth observed in the absence of the active ingredient. The expected antifungal activity (E in %) of the active ingredient combination was calculated according to the Colby equation (Colby, 1967): […] wherein X and Y are the observed antifungal activities (in %) of the individual active ingredients X and Y, respectively.
# [2] = tested on: Trichoderma harzianum; test: In vitro antifungal activity assay in 96-well microtiter plates against Trichoderma harzianum; type: cell-based
# Method: Subsequently, 100 μl of a Verticillium fungicola suspension prepared in PCB medium is used to inoculate each well with 5.0×10^3 spores/ml.
# After incubation of the microtiter plates for 3 days at 25° C., the in vitro antifungal activity (%) of the individual active ingredients was assessed by calculating the reduction in mould growth observed in the presence of the active ingredient in comparison to the mould growth observed in the absence of the active ingredient. The expected antifungal activity (E in %) of the active ingredient combination was calculated according to the Colby equation (Colby, 1967): […]
# wherein X and Y are the observed antifungal activities (in %) of the individual active ingredients X and Y, respectively. If the observed antifungal activity (O in %) of the combination exceeds the expected antifungal activity (E in %) of the combination and the resulting synergy factor O/E is thus >1.0, the combined application of the active ingredients leads to a synergistic antifungal effect.
# The experiment was conducted as described in Example 1, except for the fact that the following compositions were tested: • Control (no active ingredient) • 1.25 ppm Natamycin • 5, 10 or 15 ppm thiophanate-methyl • 1.25 ppm Natamycin+5 ppm thiophanate-methyl • 1.25 ppm Natamycin+10 ppm thiophanate-methyl • 1.25 ppm Natamycin+15 ppm thiophanate-methyl
# Furthermore, Trichoderma harzianum was used for inoculation. After 3 and 5 days of incubation at 25° C., the antifungal activity (in %) of the individual and combined active ingredients was determined according to the method described in Example 1.
structure (smiles),measurement,setting,value
"C[C@@H]1C/C=C/C=C/C=C/C=C/[C@H](O[C@@H]2O[C@H](C)[C@@H](O)[C@H](N)[C@@H]2O)C[C@@H]2O[C@](O)(C[C@@H](O)C[C@H]3O[C@@H]3/C=C/C(=O)O1)C[C@H](O)[C@H]2C(=O)O [Natamycin, natamycin]",Observed antifungal activity O (%),[1]; Natamycin 2.5 ppm,0%
"COC(=O)NC(=S)Nc1ccccc1NC(=S)NC(=O)OC [Thiophanate-methyl, dimethyl 4,4′-(o-phenylene)bis(3-thioallophanate)]",Observed antifungal activity O (%),"[2]; Thiophanate-methyl 5 ppm, 3 days incubation at 25° C.",0%
same,Observed antifungal activity O (%),"[2]; Thiophanate-methyl 10 ppm, 5 days incubation at 25° C.",0%
same,Observed antifungal activity O (%),"[2]; Thiophanate-methyl 15 ppm, 5 days incubation at 25° C.",0%
same,Observed antifungal activity O (%),[1]; Thiophanate-methyl 15 ppm,50%
same,Observed antifungal activity O (%),[1]; Thiophanate-methyl 20 ppm,50%
